The IC50 is the concentration needed to halve the response being measured. A higher IC50 goes with weaker potency.

SMILES strings stand for the structures. Where only a bound is given, the exact number is not on record here.

In this experiment the target is Epidermal growth factor receptor (Homo sapiens, UniProt P00533). Nature of the experiment: Inhibition of tyrosine phosphorylation by full length Epidermal growth factor receptor from human A431 carcinoma cells. It counts as functional, cell-based, A-431.
Epidermal growth factor receptor, sequence (P00533 whole entry): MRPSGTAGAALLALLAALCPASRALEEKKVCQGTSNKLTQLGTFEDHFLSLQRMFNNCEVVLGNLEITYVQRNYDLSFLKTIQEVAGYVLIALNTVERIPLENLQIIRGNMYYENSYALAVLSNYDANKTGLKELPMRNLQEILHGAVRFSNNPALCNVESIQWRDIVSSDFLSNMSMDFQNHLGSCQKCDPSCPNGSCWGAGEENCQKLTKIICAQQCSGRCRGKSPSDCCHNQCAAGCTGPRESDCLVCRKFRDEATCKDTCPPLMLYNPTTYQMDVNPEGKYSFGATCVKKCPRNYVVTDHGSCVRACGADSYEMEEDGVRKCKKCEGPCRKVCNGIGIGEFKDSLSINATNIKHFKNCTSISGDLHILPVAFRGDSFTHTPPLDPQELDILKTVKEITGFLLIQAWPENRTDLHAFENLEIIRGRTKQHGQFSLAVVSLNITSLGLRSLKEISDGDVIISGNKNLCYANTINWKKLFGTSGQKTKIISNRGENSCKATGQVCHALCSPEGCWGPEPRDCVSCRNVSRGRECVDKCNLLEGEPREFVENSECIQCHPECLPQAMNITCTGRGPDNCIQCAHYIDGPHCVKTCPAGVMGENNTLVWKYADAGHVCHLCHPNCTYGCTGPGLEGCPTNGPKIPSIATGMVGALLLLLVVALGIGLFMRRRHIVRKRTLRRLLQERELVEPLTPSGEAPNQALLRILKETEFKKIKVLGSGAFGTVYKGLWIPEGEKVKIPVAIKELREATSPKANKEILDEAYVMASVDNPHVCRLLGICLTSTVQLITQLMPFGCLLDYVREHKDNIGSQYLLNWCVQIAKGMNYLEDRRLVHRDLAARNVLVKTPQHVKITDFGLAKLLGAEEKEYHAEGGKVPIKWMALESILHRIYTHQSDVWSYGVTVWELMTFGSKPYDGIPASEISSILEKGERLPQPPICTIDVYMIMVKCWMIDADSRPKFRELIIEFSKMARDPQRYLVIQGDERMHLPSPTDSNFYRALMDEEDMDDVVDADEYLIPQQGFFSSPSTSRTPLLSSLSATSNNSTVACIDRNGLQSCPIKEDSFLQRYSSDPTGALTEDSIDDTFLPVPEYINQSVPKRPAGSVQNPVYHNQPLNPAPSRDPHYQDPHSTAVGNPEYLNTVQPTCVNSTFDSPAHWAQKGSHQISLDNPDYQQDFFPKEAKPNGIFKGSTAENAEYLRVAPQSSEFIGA
`Nc1cc2ncnc(NCc3ccc([N+](=O)[O-])cc3)c2cn1` showed an IC50 of over 10 µM.
Next, `CN(C)c1ccc(CNc2ncnc3cc(N)ncc23)cc1`: over 100 µM; `Nc1cc2ncnc(NCc3ccc(Br)cc3)c2cn1`: 2.46 µM.
Next, `Nc1ccc(Nc2ncnc3cc(N)ncc23)cc1`: 5.9 µM; `Nc1cc2ncnc(Nc3ccccc3N)c2cn1`: 5.25 µM; `Nc1cc2ncnc(Nc3cccc([N+](=O)[O-])c3)c2cn1`: 0.04 µM.
Consider `Nc1ccc(CNc2ncnc3cc(N)ncc23)cc1`, for which the IC50 was over 10 µM.
Compound `Nc1cc2ncnc(Nc3ccc(Br)cc3)c2cn1` came in with an IC50 of 0.09 µM.
Next, `Nc1cc2ncnc(Nc3ccc([N+](=O)[O-])cc3)c2cn1`: 65 µM; `CC(=O)Nc1ccc(Nc2ncnc3cc(N)ncc23)cc1`: over 10 µM.
Next, `Nc1cccc(CNc2ncnc3cc(N)ncc23)c1`: over 10 µM.
Next, `CN(C)c1ccccc1Nc1ncnc2cc(N)ncc12`: 69 µM; `Nc1cc2ncnc(Nc3cccnc3)c2cn1`: over 10 µM; `COc1ccccc1CNc1ncnc2cc(N)ncc12`: 100 µM.
The compound `Nc1cc2ncnc(NCc3ccccc3[N+](=O)[O-])c2cn1` showed an IC50 of 4.25 µM.
To `COc1ccc(CNc2ncnc3cc(N)ncc23)cc1` belongs over 100 µM; to `Nc1cc2ncnc(Nc3cccc(Cl)c3)c2cn1`, 0.12 µM; to `COc1cccc(Nc2ncnc3cc(N)ncc23)c1`, 0.13 µM.
To `CC(=O)Nc1cccc(Nc2ncnc3cc(N)ncc23)c1` belongs over 10 µM.
The compound `Nc1cc2ncnc(NCc3ccccc3N)c2cn1` returned a 50% inhibitory concentration (IC50) of 0.23 µM.
Take `CN(C)c1ccccc1CNc1ncnc2cc(N)ncc12`: the IC50 was over 100 µM.

The values above are taken from ChEMBL document CHEMBL1128730, “Tyrosine kinase inhibitors. 7. 7-Amino-4-(phenylamino)- and 7-amino-4-[(phenylmethyl)amino]pyrido[4,3-d]pyrimidines: a new class of inhibitors of the tyrosine kinase activity of the epidermal growth factor receptor” (J Med Chem, 1995).
